Test results taken from ChEMBL document CHEMBL1201862, “PubChem BioAssay data set” (2004).
“And” between values parts separate entries of the source, which are not always exact repeats. Equal entries are not always repeated.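 Tested at 5 concentrations; 48 h exposure; 96-well plates; endpoints linearly interpolated, else capped at highest concentration. GI50 is the concentration that inhibits growth by half.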 The source made the active and inactive calls. Cut-off read from the data, not from the text of the source: active = GI50 up to about 1.1 µM and inactive = higher.

Experiments:
Assay in all cases: growth of human tumour cells (NCI), 48 h
PC-3 = system: PC-3
A549 = system: A549
UACC-257 = system: UACC-257
HCT-15 = system: HCT-15
A498 = system: A498
SF-539 = system: SF-539
MOLT-4 = system: MOLT-4
RPMI-8226 = system: RPMI-8226
NCI-H23 = system: NCI-H23
HOP-62 = system: HOP-62
LOX IMVI = system: LOX IMVI
M14 = system: M14
COLO 205 = system: COLO 205
SK-MEL-28 = system: SK-MEL-28
Hs-578T = system: Hs-578T
SK-MEL-5 = system: SK-MEL-5
SN12C = system: SN12C
MDA-N = system: MDA-N
Malme-3M = system: Malme-3M
OVCAR-5 = system: OVCAR-5
SW-620 = system: SW-620
NCI-H460 = system: NCI-H460
IGROV-1 = system: IGROV-1
UACC-62 = system: UACC-62
MCF7 = system: MCF7
CAKI-1 = system: CAKI-1
TK-10 = system: TK-10
MDA-MB-435 = system: MDA-MB-435
OVCAR-8 = system: OVCAR-8
SNB-19 = system: SNB-19
EKVX = system: EKVX
786-0 = system: 786-0
HT-29 = system: HT-29
BT-549 = system: BT-549
HCT-116 = system: HCT-116
HOP-92 = system: HOP-92
HL-60 = system: HL-60
SK-MEL-2 = system: SK-MEL-2
OVCAR-4 = system: OVCAR-4
UO-31 = system: UO-31
SK-OV-3 = system: SK-OV-3
ACHN = system: ACHN
HCC 2998 = system: HCC 2998
DU-145 = system: DU-145
MDA-MB-231 = system: MDA-MB-231
OVCAR-3 = system: OVCAR-3
NCI-H522 = system: NCI-H522
U-251 = system: U-251
SNB-75 = system: SNB-75
RXF 393 = system: RXF 393
SF-268 = system: SF-268
SF-295 = system: SF-295
KM12 = system: KM12
K562 = system: K562
NCI/ADR-RES = system: NCI/ADR-RES
CCRF-CEM = system: CCRF-CEM
NCI-H226 = system: NCI-H226
SR = system: SR
T47D = system: T47D

Measured: GI50

O=C(/C=C/c1ccccc1)c1cc(C(=O)/C=C/c2ccccc2)c(O)cc1O
> 100 µM: HCT-15
inactive: PC-3 > 100 µM | A549 > 100 µM | UACC-257 > 100 µM | A498 31.9 µM | SF-539 47.3 µM | MOLT-4 > 100 µM | RPMI-8226 65.6 µM | NCI-H23 > 100 µM | HOP-62 > 100 µM | LOX IMVI > 100 µM | M14 > 100 µM | COLO 205 > 100 µM | SK-MEL-28 40.5 µM | Hs-578T 26.4 µM | SK-MEL-5 69.3 µM | SN12C > 100 µM | MDA-N > 100 µM | Malme-3M > 100 µM | OVCAR-5 > 100 µM | SW-620 > 100 µM | NCI-H460 > 100 µM | IGROV-1 > 100 µM | UACC-62 49.8 µM | MCF7 51.4 µM | CAKI-1 > 100 µM | TK-10 > 100 µM | MDA-MB-435 > 100 µM | OVCAR-8 > 100 µM | SNB-19 > 100 µM | EKVX 18.7 µM | 786-0 > 100 µM | HT-29 > 100 µM | BT-549 > 100 µM | HCT-116 60.1 µM | HOP-92 > 100 µM | HL-60 > 100 µM | SK-MEL-2 > 100 µM | OVCAR-4 > 10 µM | UO-31 41.3 µM | SK-OV-3 > 100 µM | ACHN 73.1 µM | HCC 2998 88.3 µM

CCOP(=Nc1ccc(N(C)C)cc1)(OCC)OCC
inactive: DU-145 > 100 µM | PC-3 > 100 µM | A549 > 100 µM | UACC-257 > 100 µM | A498 > 100 µM | MOLT-4 > 100 µM | RPMI-8226 > 100 µM | NCI-H23 > 100 µM | HOP-62 > 100 µM | MDA-MB-231 > 100 µM | OVCAR-3 > 100 µM | M14 > 100 µM | COLO 205 > 100 µM | NCI-H522 > 100 µM | SK-MEL-28 > 100 µM | U-251 > 100 µM | SNB-75 > 100 µM | Hs-578T > 100 µM | SK-MEL-5 > 100 µM | MDA-N > 100 µM | Malme-3M > 100 µM | OVCAR-5 > 100 µM | RXF 393 > 100 µM | NCI-H460 > 100 µM | SF-268 > 100 µM | IGROV-1 > 100 µM | UACC-62 > 100 µM | MCF7 > 100 µM | CAKI-1 > 100 µM | TK-10 > 100 µM | MDA-MB-435 > 100 µM | OVCAR-8 > 100 µM | SF-295 > 100 µM | SNB-19 > 100 µM | EKVX > 100 µM | BT-549 > 100 µM | HCT-116 > 100 µM | KM12 > 100 µM | HOP-92 > 100 µM | K562 > 100 µM | SK-MEL-2 > 100 µM | OVCAR-4 > 100 µM | UO-31 > 100 µM | SK-OV-3 > 100 µM | ACHN > 100 µM | HCC 2998 > 100 µM | NCI/ADR-RES > 100 µM
> 100 µM: HCT-15

N#C[BH2-][n+]1cn(C2CC(O)C(COP(=O)(O)OC3CC(n4cnc5c(N)ncnc54)OC3CO)O2)c2nc(N)[nH]c(=O)c21 (stereo not drawn)
> 100 µM: HCT-15
inactive: DU-145 > 100 µM | PC-3 > 100 µM | CCRF-CEM > 100 µM | A549 > 100 µM | UACC-257 > 100 µM | A498 > 100 µM | SF-539 > 100 µM | NCI-H23 > 100 µM | HOP-62 > 100 µM | MDA-MB-231 > 100 µM | OVCAR-3 > 100 µM | M14 > 100 µM | COLO 205 > 100 µM | NCI-H522 > 100 µM | SK-MEL-28 > 100 µM | U-251 > 100 µM | SNB-75 > 100 µM | SK-MEL-5 > 100 µM | SN12C > 100 µM | NCI-H226 > 100 µM | MDA-N > 100 µM | Malme-3M > 100 µM | OVCAR-5 > 100 µM | RXF 393 > 100 µM | SW-620 > 100 µM | NCI-H460 > 100 µM | SR > 100 µM | SF-268 > 100 µM | T47D > 100 µM | IGROV-1 > 100 µM | UACC-62 > 100 µM | MCF7 > 100 µM | CAKI-1 > 100 µM | MDA-MB-435 > 100 µM | OVCAR-8 > 100 µM | SF-295 > 100 µM | SNB-19 > 100 µM | EKVX > 100 µM | 786-0 > 100 µM | HT-29 > 100 µM | BT-549 > 100 µM | HCT-116 > 100 µM | KM12 > 100 µM | HOP-92 > 100 µM | HL-60 > 100 µM | SK-MEL-2 > 100 µM | OVCAR-4 > 100 µM | UO-31 > 100 µM | ACHN > 100 µM | HCC 2998 > 100 µM | NCI/ADR-RES > 100 µM

COc1cc2c3c(c4cc(OC)c(OC)cc4c2cc1OC)CN1CCC[C@H]1C3 [(S)-TYLOPHORINE]
active: A549 < 10 nM and 13.2 nM | UACC-257 14.3 nM and 26.6 nM | A498 < 0.01 µM | LOX IMVI < 10 nM and 11.9 nM | MDA-MB-231 < 0.0109 µM | OVCAR-3 58.9 nM and 42.3 nM | NCI-H522 56.6 nM and < 40.6 nM | SK-MEL-28 < 13.7 nM and 9.06 nM | Hs-578T 0.404 µM | NCI-H226 0.0294 µM | OVCAR-5 < 12.1 nM and 16.6 nM | MCF7 0.0107 µM | CAKI-1 < 16.3 nM and 25.8 nM | TK-10 < 16.7 nM and 19.4 nM | SNB-19 < 10 nM and 9.35 nM | BT-549 22.5 nM and 39.5 nM | HCT-116 < 10 nM and 17.9 nM | UO-31 39.9 nM and < 20.8 nM | SK-OV-3 < 12.2 nM and 12.6 nM | ACHN < 10 nM and 14.5 nM
